In patent publication US12180255B2, “Compositions and methods for derepressing RE1 silencing transcription factor target genes” (Alcamena Stem Cell Therapeutics, LLC, priority 2019, dated 2024):
Several values for one entry are separate records, joined by “and”; a condition that tells them apart may be missing. Equal values may be shown once. Where a SMILES comes first, the peptide text is derived from it. [ ]: non-standard residue; d: D form. Gly(Dodecyl) = CCCCCCCCCCCC[C@H](N)C(=O)O

How the values were obtained:
[1] = biological target: T1, PPA1 (Homo sapiens, UniProt Q15181); test: Off target phosphatase activity on phosphorylated REST peptide; assay type: biochemical; settings: 10000 nM RPP
T1 sequence (Q15181 2-289 limits assumed): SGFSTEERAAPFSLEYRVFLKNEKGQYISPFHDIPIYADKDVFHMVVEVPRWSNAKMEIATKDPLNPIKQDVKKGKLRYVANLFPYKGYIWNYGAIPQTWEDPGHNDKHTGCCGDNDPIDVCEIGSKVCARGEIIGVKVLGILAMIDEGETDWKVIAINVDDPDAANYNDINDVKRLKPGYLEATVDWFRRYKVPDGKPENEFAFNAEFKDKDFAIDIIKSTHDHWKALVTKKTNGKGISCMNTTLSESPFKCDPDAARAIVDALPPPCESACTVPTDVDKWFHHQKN

[2] = biological target: PPP1CA (Homo sapiens, UniProt P62136); test: as above; assay type: biochemical; settings: 10000 nM RPP
[3] = biological target: T2, PP5CA (Homo sapiens, UniProt P53041); test: as above; assay type: biochemical; settings: 10000 nM RPP
T2 sequence (P53041 1-499): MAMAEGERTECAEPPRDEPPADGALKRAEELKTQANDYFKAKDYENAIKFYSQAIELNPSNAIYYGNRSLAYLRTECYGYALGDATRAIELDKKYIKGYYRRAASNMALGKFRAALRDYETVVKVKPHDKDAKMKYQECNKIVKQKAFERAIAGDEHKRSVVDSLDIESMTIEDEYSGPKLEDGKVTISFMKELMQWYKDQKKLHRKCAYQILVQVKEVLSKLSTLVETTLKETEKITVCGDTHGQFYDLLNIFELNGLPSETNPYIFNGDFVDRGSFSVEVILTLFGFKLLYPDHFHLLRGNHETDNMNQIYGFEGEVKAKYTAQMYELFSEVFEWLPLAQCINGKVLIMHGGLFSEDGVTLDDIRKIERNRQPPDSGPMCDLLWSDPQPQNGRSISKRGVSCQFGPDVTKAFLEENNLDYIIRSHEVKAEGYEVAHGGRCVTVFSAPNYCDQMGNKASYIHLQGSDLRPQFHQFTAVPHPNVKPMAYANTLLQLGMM

[4] = tested on: L5 DRGs; test: qRT-PCR mRNA expression in ex vivo cultured L5 DRGs; assay type: cell-based, Sprague Dawley rat; settings: for Increase, BDNF mRNA / Increase, KV4.3 mRNA / Increase, KV7.2 mRNA / Increase, NGF mRNA / Increase, Nav1.8 mRNA / Increase, OPRM1 mRNA: DRG
Experimental: FIG. 15. […] Error bars =standard error of the mean.
L5 DRGs were dissected from adult male rats and plated in 12-well plates pre-coated with poly-D-Lysine (PDL) and laminin in a minimal volume of medium (250 ul Neurobasal™-A medium (GIBCO) supplemented with B27 (GIBCO), 50 ng/ml NGF (Sigma-Aldrich) and penicillin streptomycin) to allow attachment to the culture plate. One day after plating, DRGs were incubated with RPP (SEQ. ID NO: 12: 1 μM, 3 μM or 10 μM in culture medium, FIGS. 14 and 16; SEQ ID NOS: 13 and 14: 3 μM, FIG. 15) for 48 h. For RNA expression analysis, DRGs were lysed in 300 μl of Qiazol in a 1.5 ml tube containing Bullet Blender Pink Beads using a Bullet Blender Tissue Homogenizer (NextAdvance). Total RNA was extracted using RNeasy Midi Kit (Qiagen) according to manufacturer's instructions. Purified RNA was quantified with NanoDrop 2000 (ThermoFIsher), and reverse transcription was run using High Capacity cDNA Reverse Transcription Kit (Applied Biosystems) and 2 ng/ul RNA per reaction. For qRT-PCR, 5 ul of cDNA (corresponding to 10 ng of RNA) were mixed with to 10 ul SsoAdvanced™ Universal SYBR® Green Supermix (BioRad) and 1 ul of each primer (final primer concentration 500 nM each). Reactions were run in triplicates in a QuantStudio™ 7 Flex Real-Time PCR system (Applied Biosystems). Amplification data were analyzed using the comparative cycle threshold (ΔΔCt) method and β-actin as calibrator. Primers were as follows: β-actin: F-[…] (SEQ ID NO: 340), R-[…] (SEQ ID NO: 333); KV4.3: F-[…] (SEQ ID NO: 341), R-[…] (SEQ ID NO: 342); KV7.2 F-[…] AG (SEQ ID NO: 343), R-[…] (SEQ ID NO: 344); OPRM1: F-[…] (SEQ ID NO: 345), R-[…] (SEQ ID NO: 346).

[5] = various concentrations, 48 h, relative to water control
[6] = whole DRG ex vivo, 3 μM, 48 hours
[7] = whole DRG ex vivo, 10 μM, 48 hours

PPP1CA, sequence (P62136 whole entry, species assumed): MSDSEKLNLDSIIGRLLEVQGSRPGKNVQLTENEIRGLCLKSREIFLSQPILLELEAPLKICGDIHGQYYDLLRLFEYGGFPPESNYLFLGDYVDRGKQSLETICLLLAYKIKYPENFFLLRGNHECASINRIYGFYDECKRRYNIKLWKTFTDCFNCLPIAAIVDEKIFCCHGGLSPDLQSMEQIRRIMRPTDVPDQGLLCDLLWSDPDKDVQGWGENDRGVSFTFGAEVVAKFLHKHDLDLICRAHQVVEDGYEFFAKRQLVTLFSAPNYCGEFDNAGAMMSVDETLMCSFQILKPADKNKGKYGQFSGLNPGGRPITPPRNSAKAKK

With `CCCCCCCCCCCC[C@@H]1NC(=O)[C@@H](CCCNC(=N)N)NC(=O)[C@@H](CCCNC(=N)N)NC(=O)[C@@H](Cc2c[nH]c3ccccc23)NC(=O)[C@@H](Cc2c[nH]c3ccccc23)NC(=O)[C@@H](CCCNC(=N)N)NC(=O)[C@@H](CCC(=O)O)NC(=O)[C@@H](CC(=O)O)NC(=O)[C@@H](CC(C)C)NC(=O)[C@@H](CCC(=O)O)NC(=O)[C@H]2CCCN2C(=O)[C@H]2CCCN2C(=O)[C@@H](CCC(=O)O)NC(=O)[C@H]2CCCN2C(=O)[C@H]2CCCN2C(=O)[C@@H](CC(C)C)NC(=O)[C@H]2CCCN2C(=O)[C@@H](CCCCN)NC(=O)[C@@H](CCCNC(=N)N)NC(=O)[C@@H](CCCNC(=N)N)NC(=O)[C@@H](CCCNC(=N)N)NC(=O)[C@@H](CCCNC(=N)N)NC(=O)[C@@H](CCCNC(=N)N)NC1=O` [SEQ ID NO: 12] (cyclo([dR][dW][dW][dR][dR][Gly(Dodecyl)][dR][dR][dR][dR][dR][dK][dP][dL][dP][dP][dE][dP][dP][dE][dL][dD][dE])) the “% Activity (Average N = 5)” value [1] was 101.125%, the “% Activity (Average N = 5)” value [2] was 101.136% and the “% Activity (Average N = 5)” value [3] was 97.902%. For the same compound, the “Increase, BDNF mRNA” value ([4]; 0.3 μM, 48 h) was 1.4x, the “Increase, BDNF mRNA” value ([4]; 1 μM, 48 h) was 1.3x and the “Increase, KV4.3 mRNA” value ([4]; 1 μM, 48 h) was 0x. The “Increase, KV7.2 mRNA” value ([4]; 1 μM, 48 h) was 0 x, the “Increase, NGF mRNA” value ([4]; 1 μM, 48 h) was “No affect was observed” and the “Increase, Nav1.8 mRNA” value ([4]; 1 μM, 48 h) was 0.8x. The “Increase, OPRM1 mRNA” value ([4]; 1 μM, 48 h) was 1.2x, the “Increase, NGF mRNA” value ([4]; 1 μM, 48 h, listed as 12) was 0.9x and the “Increase, BDNF mRNA” value ([4]; 3 μM, 48 h) was 1.3x. The “Increase, KV4.3 mRNA” value ([4]; 3 μM, 48 h) was 0x, the “Increase, KV7.2 mRNA” value ([4]; 3 μM, 48 h) was 6.7x and the “Increase, NGF mRNA” value ([4]; 3 μM, 48 h) was 1.25 x. For the same compound, the “Increase, Nav1.8 mRNA” value ([4]; 3 μM, 48 h) was 2.6x, the “Increase, OPRM1 mRNA” value ([4]; 3 μM, 48 h) was 3x and the “Increase, BDNF mRNA” value ([4]; 10 μM, 48 h) was 1.7 x. For the same compound, the “Increase, KV4.3 mRNA” value ([4]; 10 μM, 48 h) was 1.9x, the “Increase, KV7.2 mRNA” value ([4]; 10 μM, 48 h) was 7.5x and the “Increase, NGF mRNA” value ([4]; 10 μM, 48 h) was 1.9 x. For the same compound, the “Increase, Nav1.8 mRNA” value ([4]; 10 μM, 48 h) was 4x, the “Increase, OPRM1 mRNA” value ([4]; 10 μM, 48 h) was 3.9x and the “mRNA expression of BDNF and NGF (in words)” value [4, 5] was “increases expression of BDNF and NGF”. For the same compound, the “mRNA expression of KV4.3, KV7.2, Nav1.8 and OPRM1 (in words)” value [4, 5] was “increases expression of KV4.3, KV7.2, Nav1.8 and OPRM1”, the “increase of NGF” value ([4]; whole DRG ex vivo, 3 μM) was “approximately 50%” and the “induction of KV4.3 compared to control” value [4, 6] was “approximately 0 times”. For the same compound, the “induction of Nav1.8 compared to control” value [4, 6] was 2.9 times and ~3 times, the “increase of BDNF expression” value ([4]; whole DRG ex vivo, 10 μM) was roughly 75% and the “increase of NGF” value ([4]; whole DRG ex vivo, 10 μM) was roughly 2 times. For the same compound, the “induction of KV7.2 compared to control” value [4, 7] was 9 times and ~7 times, the “induction of Nav1.8 compared to control” value [4, 7] was 4.8 times and ~5 times and the “increase of BDNF expression” value ([4]; whole DRG ex vivo, 0.3, 1, and 3 μM) was “approximately 25%”.
